Source: paper PMC10788915, “Fragment Merging, Growing, and Linking Identify New Trypanothione Reductase Inhibitors for Leishmaniasis” (Journal of Medicinal Chemistry, 2024)
Where two headings read alike, the source gives them in different places.

Key:
[1] = target: T1, Leishmania infantum TR (LiTR) (Leishmania infantum, UniProt A4HSF7); experiment: LiTR enzymatic inhibition assay (NADPH oxidation at 340 nm); type: biochemical; details: for IC50: 50 nM LiTR, 150 μM trypanothione, 100 μM NADPH, 25 °C; for gain in LiTR IC50 with respect to 5: compared to compound 5 (IC50 54.6 μM); for remaining activity at 10 µM: compound at 10 μM, mean ± SD, n = 3, read-out: LiTR residual activity %
T1 construct: The TbTR and LiTR genes were subcloned in a pET28b vector; 6-His (cleaved yes); made in house; host or cells: E. coli BL21(DE3), pET28b
Procedure: (§1) Enzymatic inhibition assays were performed in 50 mM HEPES pH 7.4, 40 mM NaCl at 25 °C using a JASCO V650 spectrophotometer equipped with a JASCO EHC 716 Peltier element to ensure controlled temperature. The first experiment was carried out using 50 nM LiTR, 10 or 100 μM compound to be tested, 150 μM trypanothione (trypanothione disulfide purchased from Bachem), and 100 μM NADPH (tetrasodium salt, purchased from Calbiochem). The best inhibitor candidates were then tested at concentrations ranging from 1 nM to 250 μM to determine the IC50. Assays were initiated upon addition of 100 μM NADPH to 50 nM LiTR or hGR (human glutathione reductase purchased from Sigma-Aldrich) in the presence of different concentration of compounds and 150 μM trypanothione. For both experiments, the oxidation of NADPH was followed as a decrease in absorbance at 340 nm. For each concentration of compound, the initial velocity of the NADPH oxidation was used to determine the percentage of LiTR activity with respect to that in the absence of any compound. The IC50 was determined upon fitting the residual activity of TR as a dose–response logistic equation defined as ymin + (ymax – ymin)/(1 + (x/IC50)^slope). […] The Ki was determined graphically upon linear fitting of data points for each trypanothione concentration. Data analysis was performed with QtiPlot 0.9.8.9 svn 2288, and graphs were made with Matplotlib.
(§2) Figure S3. Inhibition assay of LiTR (red) and hGR (grey) with compounds 5-6, 9-10 and 14.
(§3) Enzymatic assays were carried out at 25°C on a JASCO V650 spectrophotometer equipped with a JASCO EHC716 Peltier unit. Compound concentrations used during the experiments range from 1 […]
(§4) higher than 30 µM and 20 µM, respectively. Briefly, 50 nM LiTR or hGR (Sigma Aldrich) were mixed in 50 mM HEPES pH 7.4, 40 mM NaCl with each compound and 150 µM trypanothione or glutathione. After 3-minute incubation at 25°C, the measurement was initiated upon addition of 100 µM NADPH. The oxidation of NADPH was followed as a decrease in absorbance at 340 nm. Each initial velocity of LiTR enzymatic reaction with the compounds was expressed as a percentage of residual activity with respect to that in the absence of compound. Each data point is the mean of two measurements. The IC50 was determined upon fitting the data as a dose response logistic equation defined by the Kaleidagraph software as ymin+(ymax-ymin)/(1+(x/IC50)^slope).
(§5) (1 picture or pasted object on this page, not shown here)

[2] = tested on: L. infantum intramacrophage amastigotes; experiment: Ex vivo inhibition of intramacrophage amastigote growth; type: cell-based, Leishmania infantum; details: for EC50: 72 h, murine macrophages infected with L. infantum amastigotes, read-out: intramacrophage amastigote EC50 ± SE (95% CI)
Procedure: Balb/c murine macrophages were used to perform ex vivo assay since the parasites infect them more effectively. Macrophages (5 × 10^5/well) were placed on glass coverslips within a 24-well culture plate and incubated with complete RPMI in a 5% CO2 incubator at 37 °C for 4 h to achieve cell adhesion. After this time, L. infantum amastigotes from spleens of previously infected hamsters were added onto the macrophages adhering to the coverslips at the ratio of 10:1 (parasites/macrophages). After 24 h of infection, the noninternalized amastigotes were removed by washes with RPMI. The infected macrophages were incubated with complete RPMI medium (control) or medium containing different concentrations of compounds in a 5% CO2 incubator at 37 °C for 72 h. Then, the coverslips were fixed with methanol, stained with Giemsa 10%, and analyzed by optical microscopy. The percentage of the infected macrophages and the number of amastigotes per infected macrophage were determined by random counting of 100 cells in each coverslip. Infection was judged to be adequate if more than 70% of the macrophages in the untreated control were infected. Activity for each compound was expressed as percentage of parasite burden reduction = infectivity index of treated cells/infectivity index of untreated cells. The infectivity index was calculated as follows: number of infected macrophages × mean number of amastigotes per macrophage / total number of macrophages. Nonlinear regression analysis (Graph-Pad Software Inc., San Diego, USA) was used for curve fitting and calculation of 50% inhibitory concentrations (IC50). The experiments were performed in triplicate, and two independent experiments were conducted.

[3] = target: T2, hGR (human glutathione reductase) (Homo sapiens, UniProt P00390); experiment: hGR enzymatic inhibition assay (NADPH oxidation at 340 nm); type: biochemical; details: for IC50: 50 nM hGR, 100 μM NADPH, 25 °C; for SI (ratio of GR IC50/TR IC50): hGR versus LiTR
T2 construct: purchased Sigma-Aldrich
T2 sequence (P00390 44-522): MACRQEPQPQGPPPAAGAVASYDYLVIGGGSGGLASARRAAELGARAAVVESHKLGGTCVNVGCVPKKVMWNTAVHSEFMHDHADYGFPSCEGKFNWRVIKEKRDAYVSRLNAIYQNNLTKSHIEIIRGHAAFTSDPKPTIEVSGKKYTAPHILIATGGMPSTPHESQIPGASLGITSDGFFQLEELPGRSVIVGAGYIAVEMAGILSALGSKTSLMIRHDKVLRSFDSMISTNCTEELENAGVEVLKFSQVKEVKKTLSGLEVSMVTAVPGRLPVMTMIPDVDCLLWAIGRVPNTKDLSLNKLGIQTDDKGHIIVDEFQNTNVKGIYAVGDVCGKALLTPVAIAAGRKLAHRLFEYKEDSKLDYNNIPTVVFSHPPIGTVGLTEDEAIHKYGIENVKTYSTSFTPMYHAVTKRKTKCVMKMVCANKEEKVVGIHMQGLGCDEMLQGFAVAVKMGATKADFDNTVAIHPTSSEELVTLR
Procedure: as §1, §2, §3, §4, §5

T1 sequence (A4HSF7 1-491): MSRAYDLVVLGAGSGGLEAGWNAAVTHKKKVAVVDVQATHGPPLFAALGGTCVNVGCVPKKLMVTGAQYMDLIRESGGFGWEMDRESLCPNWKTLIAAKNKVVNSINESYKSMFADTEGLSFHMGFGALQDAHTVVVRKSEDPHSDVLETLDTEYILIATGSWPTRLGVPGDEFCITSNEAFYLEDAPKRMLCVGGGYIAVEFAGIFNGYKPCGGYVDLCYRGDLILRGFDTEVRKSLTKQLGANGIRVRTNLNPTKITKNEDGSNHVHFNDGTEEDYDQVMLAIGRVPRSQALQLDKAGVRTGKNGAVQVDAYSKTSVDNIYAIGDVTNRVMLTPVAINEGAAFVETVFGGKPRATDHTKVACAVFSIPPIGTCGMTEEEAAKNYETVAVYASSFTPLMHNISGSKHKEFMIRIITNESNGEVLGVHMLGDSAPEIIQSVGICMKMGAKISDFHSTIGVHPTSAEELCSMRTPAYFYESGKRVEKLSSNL

Compound	IC50 [1] [µM]	gain in LiTR IC50 with respect to 5 [1]	remaining activity at 10 µM [1] [%]	intramacrophage amastigote reduction ([2]; at 12.5 μM)	IC50 [3] [µM]	SI (ratio of GR IC50/TR IC50) [3]	EC50 ([2]; Leishmania infantum, Macrophage, in Mus musculus) [µM]	EC50 [2] [µM]
O=C(NCCc1ccc(F)cc1)c1ccc(CNC(=O)N2CC[N+](CCCc3ccccc3)(Cc3ccc(Cl)c(Cl)c3)CC2)o1.[I-] [Compound 14, 1-(3,4-Dichlorobenzyl)-4-(((5-((4-fluorophenethyl)carbamoyl)furan-2-yl)methyl)carbamoyl)-1-(3-phenylpropyl)piperazin-1-ium Iodide]	2.35 ± 0.21	23 fold	10.3 ± 2.8	40% of reduction at 12.5 μM	3.7 ± 0.3	1.6	–	–
C[N+]1(CCCc2ccccc2)CCN(C(=O)N(Cc2ccc(C(=O)NCCc3ccc(F)cc3)o2)c2ccc(F)cc2)CC1.[I-] [Compound 9, 4-(((5-((4-Fluorophenethyl)carbamoyl)furan-2-yl)methyl)(4-fluorophenyl)carbamoyl)-1-methyl-1-(3-phenylpropyl)piperazin-1-ium Iodide]	20.5 ± 2	about 3 fold	48.5 ± 7.9	–	62.4 ± 12.4	3.0	15.3	15.3 ± 2.3
O=C(NCCc1ccc(F)cc1)c1ccc(CN(C(=O)N2CC[N+](CCCc3ccccc3)(Cc3ccc(Cl)c(Cl)c3)CC2)c2ccc(F)cc2)o1.[I-] [Compound 10, 1-(3,4-Dichlorobenzyl)-4-(((5-((4-fluorophenethyl)carbamoyl)furan-2-yl)methyl)(4-fluorophenyl)carbamoyl)-1-(3-phenylpropyl)piperazin-1-ium Iodide]	1.31 ± 0.07	42 fold	22 ± 11.6	–	2.3 ± 0.1	1.7	–	–
